The structures appear in SMILES notation. Where “and” joins values, the source holds several entries; their conditions need not be identical. Equal values may be shown once.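 Cells were grown in 96-well plates and exposed to each compound for 48 hours at five concentrations; endpoints were interpolated linearly between bracketing concentrations, or set to the highest concentration if not reached. Abbreviation: GI50, concentration required for 50% inhibition of growth. TGI: concentration producing complete growth inhibition.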

This note sets out measurements from PubChem BioAssay (NCI).

For the first experiment, the system named is A498 renal. The experiment is described as follows: NCI tumour cell line growth inhibition, 48 h.
In turn, `CN(C)CCCOC(=O)C(c1ccccc1)C1(O)CCSCC1` (configuration not stated) returned a TGI above 100 µM.

Regarding `COCOC1/C=C/CCCCC2=C(C)C=C(C1)O2` (configuration not stated), the TGI was above 100 µM.

For `O=C(O)c1cc2c(cc1CC(Cc1ccc3c(c1)CCC3)C(=O)O)CCC2` (configuration not stated), the TGI is above 100 µM.

In the case of `C[C@@]12[C@H]3CC[C@@H]1[C@H](O)C(=O)N2CC3`, the TGI was above 100 µM.

For `CC(C)=CCOC(=O)C(C)=[N+]=[N-]`, the TGI is above 100 µM.

Compound `Cc1ccc([C@@H]2[C@@H](C(=O)c3ccccn3)[C@H](c3ccc(C)cc3)C[C@](O)(c3ccccn3)[C@H]2C(=O)c2ccccn2)cc1` had a TGI above 41.6 µM.

In turn, `O=C(Nc1ccc(Br)cc1)c1c(-c2ccccc2)c2ccc(O)cc2oc1=O` gave a TGI above 10 µM.

The compound `O=C1C(Cl)=C(N2CCN(C3=C(Cl)C(=O)c4ccccc4C3=O)CC2)C(=O)c2ccccc21` yielded a TGI of 13.7 µM.

The compound `CC(C)(N=NC(C)(C)C(=O)NCCO)C(=O)NCCO` displayed a TGI above 100 µM.

`CCOc1cc(NC(C)=O)ccc1C(=O)NNC(=O)c1ccccc1OC(C)=O`: the TGI was 73.8 µM.

In turn, `c1ccc2c(c1)OC(N1CCCC1)c1cnc(N3CCCC3)nc1-2` (configuration not stated) returned a TGI of 76 µM.

With `CC(C)c1ccc2[nH]c(O)c(-c3[nH]c4ccccc4c3N=O)c2c1`, the TGI was found to be 9.29 µM.

As for `CCCCCCCCCCCCCCCCCCNc1ccn(C2OC(COP(=O)(O)OCC3OC(n4ccc(NC(=O)CCCCCCCCCCCCCCCCC)nc4=O)C(OC(C)=O)C3OC(C)=O)C(OC(C)=O)C2OC(C)=O)c(=O)n1` (configuration not stated), the TGI was above 100 µM.

A further experiment has as its system SR leukemia. Kind of experiment: NCI tumour cell line growth inhibition, 48 h.
`COc1ccccc1N/C(=C\C(=O)C(=O)NC12CC3CC(CC(C3)C1)C2)c1ccccc1`: the TGI is above 10 µM.

With `Cc1c(F)c(N)c2c(=O)cc(-c3ccc(NC(=O)CN(C)C)c(F)c3)oc2c1F`, the TGI was 61 µM.

`COc1cccc2c(N)c3cccc(C(=O)NCCN(C)C)c3nc12` returned a TGI of 1.12 µM.

As to `O=C(CCCCCCCCC(=O)NN1C(=O)/C(=C\c2ccc(O)c(O)c2)SC1c1ccc(Cl)cc1)NN1C(=O)/C(=C\c2ccc(O)c(O)c2)SC1c1ccc(Cl)cc1` (configuration not stated), the TGI was 28.3 µM.

Take `CC(C)Sc1nc(C#N)cc2c1CCCC2`: the TGI came out at 79.1 µM.

As for `CN1C(=O)N(c2ccccc2)C2(CCN(CC3COc4ccccc4O3)CC2)C1=O` (configuration not stated), the TGI was above 100 µM.

`O=C1/C(=C/c2ccccc2)N=C(c2ccccc2)N1n1c(-c2ccccc2)nc2ccccc2c1=O` registered a TGI above 100 µM.

In the case of `O=c1nc(N2CCN(c3ccccc3)CC2)ccn1C1OC(CO)C(O)C1O` (configuration not stated), the TGI was above 100 µM.

`OCCCCCNc1c2ccccc2nc2ccccc12` displayed a TGI above 23.2 µM.

`CCOP(=O)(OCC)/C(C#N)=C/c1cnc(-c2ccccc2)[nH]1`: the TGI was above 100 µM.

As for `CC(=O)OCC1OC(OC(C)(C)CC/C=C(\C)[C@@H]2C/C=C(\C)CC/C=C(\C)CC2)C(O)C(O)C1OC(C)=O` (some centres not stated), the GI50 was 36.3 µM and > 100 µM; the TGI was above 100 µM.

Compound `O=C(O)c1c2c(cc3c1CC1(Cc4ccccc4C1)C3)CCC2` registered a TGI above 100 µM.

Compound `Cc1nc(-c2ccc([N+](=O)[O-])cc2)cn2c1nc1ccccc12` gave a TGI above 100 µM.

For `CN(C)CCCOC(=O)C(c1ccccc1)C1(O)CCSCC1` (configuration not stated), the TGI was above 100 µM.

For the compound `COCOC1/C=C/CCCCC2=C(C)C=C(C1)O2` (configuration not stated), the TGI is above 100 µM.

`O=C(O)c1cc2c(cc1CC(Cc1ccc3c(c1)CCC3)C(=O)O)CCC2` (configuration not stated) came in with a TGI above 100 µM.

`C[C@@]12[C@H]3CC[C@@H]1[C@H](O)C(=O)N2CC3`: the TGI is above 100 µM.

Take `CC(C)=CCOC(=O)C(C)=[N+]=[N-]`: the TGI was above 100 µM.

Consider `Cc1ccc([C@@H]2[C@@H](C(=O)c3ccccn3)[C@H](c3ccc(C)cc3)C[C@](O)(c3ccccn3)[C@H]2C(=O)c2ccccn2)cc1`, for which the TGI was above 100 µM.

In turn, `O=C(Nc1ccc(Br)cc1)c1c(-c2ccccc2)c2ccc(O)cc2oc1=O` returned a TGI above 10 µM.

Regarding `O=C1C(Cl)=C(N2CCN(C3=C(Cl)C(=O)c4ccccc4C3=O)CC2)C(=O)c2ccccc21`, the TGI was determined as 0.458 µM.

Turning to `CC(C)(N=NC(C)(C)C(=O)NCCO)C(=O)NCCO`, the TGI was above 100 µM.

In turn, `CCOc1cc(NC(C)=O)ccc1C(=O)NNC(=O)c1ccccc1OC(C)=O` showed a TGI above 34.7 µM.

Regarding `c1ccc2c(c1)OC(N1CCCC1)c1cnc(N3CCCC3)nc1-2` (configuration not stated), the TGI is above 100 µM.

Compound `CC(C)c1ccc2[nH]c(O)c(-c3[nH]c4ccccc4c3N=O)c2c1` had a TGI of 7.32 µM.

For the compound `CCCCCCCCCCCCCCCCCCNc1ccn(C2OC(COP(=O)(O)OCC3OC(n4ccc(NC(=O)CCCCCCCCCCCCCCCCC)nc4=O)C(OC(C)=O)C3OC(C)=O)C(OC(C)=O)C2OC(C)=O)c(=O)n1` (configuration not stated), the TGI is above 100 µM.

For the next experiment, the system named is MDA-MB-231 breast. The experiment is described as follows: NCI tumour cell line growth inhibition, 48 h.
For `COc1ccccc1N/C(=C\C(=O)C(=O)NC12CC3CC(CC(C3)C1)C2)c1ccccc1`, the TGI was above 10 µM.

In turn, `Cc1c(F)c(N)c2c(=O)cc(-c3ccc(NC(=O)CN(C)C)c(F)c3)oc2c1F` came in with a TGI above 83.7 µM.

`COc1cccc2c(N)c3cccc(C(=O)NCCN(C)C)c3nc12` had a TGI of 0.853 µM.

Compound `O=C(CCCCCCCCC(=O)NN1C(=O)/C(=C\c2ccc(O)c(O)c2)SC1c1ccc(Cl)cc1)NN1C(=O)/C(=C\c2ccc(O)c(O)c2)SC1c1ccc(Cl)cc1` (configuration not stated) displayed a TGI above 100 µM.

`CC(C)Sc1nc(C#N)cc2c1CCCC2`: the TGI is above 100 µM.

Compound `CN1C(=O)N(c2ccccc2)C2(CCN(CC3COc4ccccc4O3)CC2)C1=O` (configuration not stated) had a TGI above 100 µM.

Turning to `O=C1/C(=C/c2ccccc2)N=C(c2ccccc2)N1n1c(-c2ccccc2)nc2ccccc2c1=O`, the TGI is above 100 µM.

`O=c1nc(N2CCN(c3ccccc3)CC2)ccn1C1OC(CO)C(O)C1O` (configuration not stated): the TGI was above 100 µM.

In turn, `OCCCCCNc1c2ccccc2nc2ccccc12` yielded a TGI of 10.7 µM.

For `CCOP(=O)(OCC)/C(C#N)=C/c1cnc(-c2ccccc2)[nH]1`, the TGI was above 100 µM.

For `CC(=O)OCC1OC(OC(C)(C)CC/C=C(\C)[C@@H]2C/C=C(\C)CC/C=C(\C)CC2)C(O)C(O)C1OC(C)=O` (some centres not stated), the GI50 was > 61.2 µM and 18.9 µM; the TGI was > 100 µM and 38.6 µM.

The compound `O=C(O)c1c2c(cc3c1CC1(Cc4ccccc4C1)C3)CCC2` had a TGI above 100 µM.

In the case of `Cc1nc(-c2ccc([N+](=O)[O-])cc2)cn2c1nc1ccccc12`, the TGI was above 100 µM.

Regarding `CN(C)CCCOC(=O)C(c1ccccc1)C1(O)CCSCC1` (configuration not stated), the TGI is above 100 µM.

Take `COCOC1/C=C/CCCCC2=C(C)C=C(C1)O2` (configuration not stated): the TGI was above 100 µM.

Turning to `O=C(O)c1cc2c(cc1CC(Cc1ccc3c(c1)CCC3)C(=O)O)CCC2` (configuration not stated), the TGI is above 100 µM.

`C[C@@]12[C@H]3CC[C@@H]1[C@H](O)C(=O)N2CC3` had a TGI above 100 µM.

The compound `CC(C)=CCOC(=O)C(C)=[N+]=[N-]` registered a TGI above 100 µM.

Compound `Cc1ccc([C@@H]2[C@@H](C(=O)c3ccccn3)[C@H](c3ccc(C)cc3)C[C@](O)(c3ccccn3)[C@H]2C(=O)c2ccccn2)cc1` showed a TGI above 100 µM.

In turn, `O=C(Nc1ccc(Br)cc1)c1c(-c2ccccc2)c2ccc(O)cc2oc1=O` registered a TGI above 10 µM.

Compound `O=C1C(Cl)=C(N2CCN(C3=C(Cl)C(=O)c4ccccc4C3=O)CC2)C(=O)c2ccccc21` showed a TGI of 3.34 µM.

In turn, `CC(C)(N=NC(C)(C)C(=O)NCCO)C(=O)NCCO` came in with a TGI above 100 µM.

With `CCOc1cc(NC(C)=O)ccc1C(=O)NNC(=O)c1ccccc1OC(C)=O`, the TGI was above 100 µM.

Take `c1ccc2c(c1)OC(N1CCCC1)c1cnc(N3CCCC3)nc1-2` (configuration not stated): the TGI was above 100 µM.

For the compound `CC(C)c1ccc2[nH]c(O)c(-c3[nH]c4ccccc4c3N=O)c2c1`, the TGI turned out to be 29.8 µM.

In turn, `CCCCCCCCCCCCCCCCCCNc1ccn(C2OC(COP(=O)(O)OCC3OC(n4ccc(NC(=O)CCCCCCCCCCCCCCCCC)nc4=O)C(OC(C)=O)C3OC(C)=O)C(OC(C)=O)C2OC(C)=O)c(=O)n1` (configuration not stated) yielded a TGI above 100 µM.
